This note sets out measurements from PubChem BioAssay (NCI).

SMILES strings stand for the structures.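 In this assay, cells in 96-well plates receive the compound at five concentrations for 48 hours. Endpoints are linearly interpolated between the surrounding concentrations. TGI denotes the concentration required for complete inhibition of growth.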

Among the test systems are SK-MEL-28 melanoma; RXF 393 renal; SNB-75 CNS; SNB-19 CNS; HCT-15 colon; LOX IMVI melanoma; KM12 colon; COLO 205 colon; BT-549 breast; MDA-MB-231 breast; HCT-116 colon; OVCAR-5 ovarian; DU-145 prostate; SK-OV-3 ovarian; SN12C renal; 786-0 renal; HS 578T breast; OVCAR-4 ovarian; HOP-92 NSCLC; MDA-N.
Holding throughout (experiment): DTP human tumour cell line panel, 48 h

For orientation: TGI means the concentration giving total growth inhibition. The low end stands for greater sensitivity of the cells, the high end for lower sensitivity of the cells. As for `CC1(C)[C@@H]2C[C@H]1C(Cc1ccc(C[C@H]3c4cc(-c5ccccn5)ncc4[C@H]4C[C@@H]3C4(C)C)cc1)c1cc(-c3ccccn3)ncc12` (stereo partly drawn), the TGI is 79.7 µM in the assay on SK-MEL-28 melanoma; 77.8 µM in the assay on RXF 393 renal; > 100 µM in the assay on SNB-75 CNS; > 100 µM in the assay on SNB-19 CNS; > 100 µM with HCT-15 colon; 7.55 µM in the assay on LOX IMVI melanoma. Also, the total growth inhibition concentration (TGI) is 38.4 µM in the assay on KM12 colon; 13.7 µM with COLO 205 colon; > 100 µM with BT-549 breast; > 100 µM in the assay on MDA-MB-231 breast; 18.3 µM in the assay with HCT-116 colon; > 100 µM with OVCAR-5 ovarian. Besides, the concentration for total growth inhibition (TGI) in the assay with DU-145 prostate was > 100 µM; in the assay on SK-OV-3 ovarian, > 100 µM; in the assay on SN12C renal, 23.3 µM; in the assay on 786-0 renal, 14.7 µM; with HS 578T breast, > 100 µM.

For `COc1ccc2c(c1)N(C(C)=O)CN1C(=O)CCC21` (stereo not drawn), the TGI with SK-MEL-28 melanoma, in the assay with RXF 393 renal, in the assay on SNB-75 CNS, with SNB-19 CNS, in the assay with HCT-15 colon and with LOX IMVI melanoma was > 100 µM each time. The TGI in the assay on KM12 colon, in the assay with COLO 205 colon, in the assay on MDA-MB-231 breast, in the assay on HCT-116 colon, in the assay with OVCAR-4 ovarian and in the assay on OVCAR-5 ovarian was > 100 µM in each case. Moreover, the TGI in the assay with HOP-92 NSCLC, in the assay with DU-145 prostate, in the assay with SK-OV-3 ovarian, with SN12C renal, in the assay on 786-0 renal and with HS 578T breast was > 100 µM in each case. Also, the TGI with MDA-N is > 100 µM.

In the case of `Nc1nc(N)nc(-c2cnccn2)n1`, the TGI in the assay on SK-MEL-28 melanoma, with RXF 393 renal, in the assay with SNB-75 CNS, in the assay on SNB-19 CNS, in the assay on HCT-15 colon and in the assay on LOX IMVI melanoma was > 100 µM throughout. Further, the TGI with KM12 colon, with COLO 205 colon, in the assay with BT-549 breast, in the assay on MDA-MB-231 breast, with HCT-116 colon and with OVCAR-5 ovarian was > 100 µM each time. Also, the TGI with HOP-92 NSCLC, in the assay with DU-145 prostate, with SK-OV-3 ovarian, with SN12C renal and in the assay on 786-0 renal was > 100 µM throughout.

With `C#CCCOC1(OC)N=NC(C)(C)O1` (stereo not drawn), the TGI in the assay with SK-MEL-28 melanoma, in the assay on RXF 393 renal, with SNB-75 CNS, in the assay on SNB-19 CNS, with HCT-15 colon and with LOX IMVI melanoma was > 100 µM each time. Further, the TGI in the assay on KM12 colon, in the assay on COLO 205 colon, in the assay on MDA-MB-231 breast, in the assay with HCT-116 colon, in the assay on OVCAR-4 ovarian and in the assay on OVCAR-5 ovarian was > 100 µM in each case. In addition, the total growth inhibition concentration (TGI) in the assay with HOP-92 NSCLC, with DU-145 prostate, in the assay on SN12C renal, with 786-0 renal, in the assay with HS 578T breast and in the assay on MDA-N was > 100 µM throughout.

As for `CC(=N/NC(=S)Nc1c(C)n(C)n(-c2ccccc2)c1=O)/C(C)=N\NC(=S)Nc1c(C)n(C)n(-c2ccccc2)c1=O`, the total growth inhibition concentration (TGI) in the assay on RXF 393 renal, with SNB-75 CNS, in the assay with SNB-19 CNS, in the assay on HCT-15 colon, in the assay on KM12 colon and with COLO 205 colon was > 100 µM throughout. In addition, the TGI with BT-549 breast, with MDA-MB-231 breast, in the assay with HCT-116 colon, in the assay on OVCAR-4 ovarian, with OVCAR-5 ovarian and in the assay on HOP-92 NSCLC was > 100 µM each time. In addition, the TGI in the assay with DU-145 prostate, in the assay on SK-OV-3 ovarian, with 786-0 renal and in the assay with HS 578T breast was > 100 µM throughout.

Consider `Cn1c2ccccc2c(=O)c2c(O)cc3c(c21)C=CC1(CCCC1)O3`, for which the TGI in the assay with SK-MEL-28 melanoma, in the assay on RXF 393 renal, in the assay with SNB-75 CNS, in the assay on SNB-19 CNS, in the assay on HCT-15 colon and with LOX IMVI melanoma was > 100 µM in each case. The total growth inhibition concentration (TGI) in the assay on KM12 colon, in the assay with COLO 205 colon, in the assay with BT-549 breast, with MDA-MB-231 breast, in the assay with HCT-116 colon and in the assay on OVCAR-4 ovarian was > 100 µM in each case. The TGI in the assay with OVCAR-5 ovarian, in the assay with HOP-92 NSCLC, with DU-145 prostate, in the assay on SK-OV-3 ovarian, in the assay on SN12C renal and in the assay with 786-0 renal was > 100 µM throughout. Also, in the assay with HS 578T breast, the TGI is > 100 µM.

As to `O=[N+]([O-])/C(Cl)=C(\Nc1ccccc1)C(Cl)=C(Cl)Cl`, the TGI in the assay with SK-MEL-28 melanoma was > 100 µM; in the assay on RXF 393 renal, > 100 µM; with SNB-75 CNS, 20.5 µM; with SNB-19 CNS, > 100 µM; with HCT-15 colon it was 66.6 µM; in the assay on LOX IMVI melanoma, 88.5 µM. Besides, the total growth inhibition concentration (TGI) is 32 µM with KM12 colon; 39.5 µM in the assay with COLO 205 colon; 79.6 µM in the assay on MDA-MB-231 breast; > 100 µM with HCT-116 colon; > 100 µM with OVCAR-4 ovarian; > 100 µM in the assay on OVCAR-5 ovarian. The TGI in the assay with HOP-92 NSCLC is 69.5 µM; with DU-145 prostate, > 100 µM; in the assay on SK-OV-3 ovarian it was > 100 µM; in the assay on SN12C renal, > 100 µM; in the assay with 786-0 renal, > 100 µM; in the assay on HS 578T breast it was 69.6 µM. In addition, in the assay on MDA-N, the TGI was > 100 µM.

In the case of `NC(=O)C(=CN1C(=O)CC(=O)NC1=S)C(N)=O`, the concentration for total growth inhibition (TGI) in the assay on SK-MEL-28 melanoma, in the assay on RXF 393 renal, in the assay with SNB-75 CNS, in the assay on SNB-19 CNS, in the assay with HCT-15 colon and with LOX IMVI melanoma was > 100 µM each time. The TGI with KM12 colon, with COLO 205 colon, with BT-549 breast, in the assay with MDA-MB-231 breast, in the assay on HCT-116 colon and with OVCAR-4 ovarian was > 100 µM throughout. The TGI in the assay on OVCAR-5 ovarian, with HOP-92 NSCLC, with DU-145 prostate, in the assay on SK-OV-3 ovarian, with SN12C renal and in the assay with 786-0 renal was > 100 µM each time.
